Reference: article PMC6943742, “Peptide/Peptoid Hybrid Oligomers: The Influence of Hydrophobicity and Relative Side-Chain Length on Antibacterial Activity and Cell Selectivity” (Molecules, 2019)
Converted amounts (≈) assume the structure as drawn. Non-standard residues stand in square brackets, D forms with d. Residues, ends and D or L forms follow the SMILES beside them. N(5-aminopentyl)Gly = NCCCCCNCC(=O)O; Gly(N-2-aminoethyl) = NCCNCC(=O)O; Gly(N(CH2)3NH2) = NCCCNCC(=O)O; hLys = NCCCCC[C@H](N)C(=O)O; Nphe = O=C(O)CNCc1ccccc1; Nlys = NCCCCNCC(=O)O

Assays:
[1] = test system: HepG2 cell line ATCC HB-8065; experiment: in vitro; format: cell-based; settings: 48 h
Description: (§1) Side effects affecting cell viability were estimated on the HepG2 cell line ATCC HB-8065. In brief, HepG2 cells were seeded in flat-bottomed 96-well plates at a concentration of 5000 cells per well. At 80−90% confluency, the cells were incubated for 24 h in a humidified incubator (5% CO2, 37 °C). The medium was removed, and the cells were incubated for 48 h in a humidified incubator (5% CO2, 37 °C) with compounds in two-fold serial dilutions. An MTT assay was then performed as previously described. In brief, after incubation with the test compounds, the culture medium was removed and fresh medium with 0.2 mg/mL MTT was added in each well of the plate. After incubation (3 h, 37 °C, 5% CO2), the medium with MTT was removed, and 200 μL dimethyl sulfoxide were added at once to each sample. Absorbance of MTT was measured using spectrophotometer TECAN Infinite M1000 at 540 nm. The relative viability was calculated by using the formula: ODtreated cells × 100/ODcontrol cells. The IC50 values are calculated by using the program Graph Pad Prism® 5.0. For all compounds, the test range was 10–1280 μg/mL.

in vitro [2] = format: cell-based; settings: human
Description: as §1

in vitro [3] = format: cell-based; settings: human, Hemolytic Activity (percentage hemolysis)
Description: The lysis of human red blood cells was measured as previously described, with modifications. In brief, freshly drawn human red blood cells (hRBCs) were washed three times with PBS buffer and centrifuged two times for 5 min at 2500 rpm. A two-fold serial dilution of peptidomimetics in PBS buffer was added to each well in a sterile polypropylene V-bottom 96-well plate to the total volume of 75 μL. A 0.5% v/v hRBC suspension (75 μL in PBS buffer) was added to each well to reach a final volume of 150 μL in each well. The plate was incubated (37 °C) for 60 min, and then the cells were subsequently pelleted by centrifugation at 1000 rpm for 5 min. The supernatants (50 μL) were transferred to clear, flat-bottomed plastic 96-well plates. The concentration of hemoglobin was detected by measuring the OD at 405 nm. The OD of cells incubated with 0.1% SDS defined 100% hemolysis, while the OD of cells incubated with PBS buffer defined 0% hemolysis. The concentrations tested were 200, 400, and 800 μg/mL (only average values for the highest concentration are stated in Table 2).

P. aeruginosa PAO1 = format: cell-based; settings: PAO1, 20 h
Description: (§2) MIC values were evaluated by using the modified Hancock lab protocol in non-binding polystyrene microtitre plates, with bacterial suspensions of ∼2 × 10^5 CFU/mL in Mueller-Hinton broth (Difco, Sparks MD, USA), with Mg^2+ and Ca^2+ concentrations of 4 mg/L each. The compounds were dissolved in H2O and diluted in 0.01% acetic acid, 0.2% BSA (final concentration). Aliquots of 11 µL of 10 × test compounds were then transferred to the appropriate wells with bacterial suspensions. For preparation and transfer of the solutions of the compounds, low-binding sterile tubes and tips (Axygen, Union City CA, USA) were used. After 20 h incubation of covered plates at 35 °C (±2 °C) with circular shaking at 220 rpm, the MICs were read. The antibacterial activity of peptidomimetics was tested against E. coli ATCC 25922, K. pneumoniae ATCC 13883, P. aeruginosa ATCC 27853, P. aeruginosa PAO1, A. baumannii ATCC 19606, S. aureus ATCC 29213, and E. faecalis ATCC 29212.

A. baumannii ATCC 19606 = format: cell-based; settings: ATCC 19606, 20 h
Description: as §2

P. aeruginosa ATCC 27853 = format: cell-based; settings: ATCC 27853, 20 h
Description: as §2

K. pneumoniae ATCC 13883 = format: cell-based; settings: ATCC 13883, 20 h
Description: as §2

E. faecalis ATCC 29212 = format: cell-based; settings: ATCC 29212, 20 h
Description: as §2

E. coli ATCC 25922 = format: cell-based; settings: ATCC 25922, 20 h
Description: as §2

S. aureus ATCC 29213 = format: cell-based; settings: ATCC 29213, 20 h
Description: as §2

[4] = Relative hydrophobicity by RP-HPLC (% MeCN at peak elution); format: physicochemical; settings: RP-HPLC gradient 0 → 60% B during 10 min; % MeCN at peak elution calculated from retention time
Description: The relative hydrophobicity of each peptidomimetic was measured by reverse-phase high-performance liquid chromatography (RP-HPLC). Typically, the RP-HPLC retention time (or percentage acetonitrile at peak elution) constitutes the preferred measure that allows for comparison of relative hydrophobicity, while log P values of polycationic peptides or peptidomimetics normally are considered unsuitable due to the extreme hydrophilic nature of such compounds [11, 45, 57, 58, 59, 60]. […] For both subgroups III (with cationic amino acid residues and the peptoid analogue of Phe, NPhe, i.e., 9–12) and IV (with cationic amino acid residues and the peptoid analogue of hPhe, NhPhe, i.e., 13–16) only minor differences in hydrophobicity were seen. These observations infer that, when the cationic residues are of a peptoid nature, the side-chain length of these has a […] influence on the hydrophobicity. […] Thus, introduction of additional six methylene groups results, as expected, in increased hydrophobicity.
Starting materials and solvents were purchased from commercial suppliers (Iris Biotech, Markredwitz, Germany; Fluorochem, Hadfield, United Kingdom; and Merck, Darmstadt, Germany) and used without further purification. Water used for analytical and preparative high-performance liquid chromatography (HPLC) was filtered through a 0.22-μm Millipore membrane filter. Purity and retention time of each peptidomimetic were determined by analytical UHPLC by using a Phenomenex Luna C18(2) HST column (100 mm × 3 mm; particle size: 2.5 μm; pore size: 100 Å) on a Shimadzu Prominence and Shimadzu Nexera system using an aqueous acetonitrile (MeCN) gradient with 0.1% trifluoroacetic acid (TFA) added (eluent A: 5:95 MeCN–H2O + 0.1% TFA, eluent B: 95:5 MeCN–H2O + 0.1% TFA); a flow rate of 0.5 mL/min was used. For elution of peptidomimetics, a linear gradient of 0% to 60% B during 10 min was used with UV detection at λ = 220 nm. […] For each peptidomimetic, the percentage of MeCN at peak elution was calculated from the retention time by using the following formula:(1) %MeCN = 0.95 (0.6Rt/10 min.) + 0.05 (1−0.6Rt/10 min.).

human red blood cells = settings: cited from earlier work
[5] = design: method as in PMID 29198866; settings: peptoid oligomers; cited from earlier work

Compound | IC50 for inhibiting growth of HepG2 cells [1] [mg/L] | viability at 48 h, 1280 µg/mL (in vitro [2]) [%] | hemolysis at 60 min, 800 µg/mL (in vitro [3]) [%] | MIC (P. aeruginosa PAO1) [mg/L] | MIC (A. baumannii ATCC 19606) [mg/L] | MIC (P. aeruginosa ATCC 27853) [mg/L] | MIC (K. pneumoniae ATCC 13883) [mg/L] | MIC (E. faecalis ATCC 29212) [mg/L] | MIC (E. coli ATCC 25922) [mg/L] | MIC (S. aureus ATCC 29213) [mg/L] | Hydrophobicity (% MeCN at elution) [4] [%] | Concentration resulting in 10% hemolysis (human red blood cells) [µM] | Hydrophobicity (% MeCN at peak elution) [5] [% MeCN]
NCCCC[C@H](NC(=O)CN(Cc1ccccc1)C(=O)[C@H](CCCCN)NC(=O)CN(Cc1ccccc1)C(=O)[C@H](CCCCN)NC(=O)CN(Cc1ccccc1)C(=O)[C@H](CCCCN)NC(=O)CN(Cc1ccccc1)C(=O)[C@H](CCCCN)NC(=O)CN(Cc1ccccc1)C(=O)[C@@H](N)CCCCN)C(=O)N(CC(N)=O)Cc1ccccc1 [Peptidomimetic 11] (H-K[Nphe]K[Nphe]K[Nphe]K[Nphe]K[Nphe]K[Nphe]-NH2) | >1280 | 76 | 10 | 8 to 16 | >64 | 4 (≈ 2.4 µM) | 64 (≈ 38.3 µM) | >64 | 4 to 8 | >64 | 36.9 | – | –
NCCCCNCC(=O)N[C@@H](Cc1ccccc1)C(=O)N(CCCCN)CC(=O)N[C@@H](Cc1ccccc1)C(=O)N(CCCCN)CC(=O)N[C@@H](Cc1ccccc1)C(=O)N(CCCCN)CC(=O)N[C@@H](Cc1ccccc1)C(=O)N(CCCCN)CC(=O)N[C@@H](Cc1ccccc1)C(=O)N(CCCCN)CC(=O)N[C@@H](Cc1ccccc1)C(N)=O [Peptidomimetic 3] (H-[Nlys]F[Nlys]F[Nlys]F[Nlys]F[Nlys]F[Nlys]F-NH2) | 1280 | 52 | 8 | >64 | >64 | >64 | 32 (≈ 19.2 µM) | >64 | 8 to 16 | >64 | 35.6 | – | –
NCCCCCNCC(=O)N[C@@H](Cc1ccccc1)C(=O)N(CCCCCN)CC(=O)N[C@@H](Cc1ccccc1)C(=O)N(CCCCCN)CC(=O)N[C@@H](Cc1ccccc1)C(=O)N(CCCCCN)CC(=O)N[C@@H](Cc1ccccc1)C(=O)N(CCCCCN)CC(=O)N[C@@H](Cc1ccccc1)C(=O)N(CCCCCN)CC(=O)N[C@@H](Cc1ccccc1)C(N)=O [Peptidomimetic 4] (H-[N(5-aminopentyl)Gly]F[N(5-aminopentyl)Gly]F[N(5-aminopentyl)Gly]F[N(5-aminopentyl)Gly]F[N(5-aminopentyl)Gly]F[N(5-aminopentyl)Gly]F-NH2) | 1280 | 49 | 9 | >64 | 64 (≈ 36.5 µM) | >64 | 64 (≈ 36.5 µM) | >64 | 4 to 8 | >64 | 36.6 | – | –
NCCCCC[C@H](NC(=O)CN(Cc1ccccc1)C(=O)[C@H](CCCCCN)NC(=O)CN(Cc1ccccc1)C(=O)[C@H](CCCCCN)NC(=O)CN(Cc1ccccc1)C(=O)[C@H](CCCCCN)NC(=O)CN(Cc1ccccc1)C(=O)[C@H](CCCCCN)NC(=O)CN(Cc1ccccc1)C(=O)[C@@H](N)CCCCCN)C(=O)N(CC(N)=O)Cc1ccccc1 [Peptidomimetic 12] (H-[hLys][Nphe][hLys][Nphe][hLys][Nphe][hLys][Nphe][hLys][Nphe][hLys][Nphe]-NH2) | 1280 | 47 | 9 | 64 (≈ 36.5 µM) | – | 64 (≈ 36.5 µM) | >64 | >64 | 2 (≈ 1.14 µM) | >64 | 38.0 | – | –
NCCCNCC(=O)N[C@@H](Cc1ccccc1)C(=O)N(CCCN)CC(=O)N[C@@H](Cc1ccccc1)C(=O)N(CCCN)CC(=O)N[C@@H](Cc1ccccc1)C(=O)N(CCCN)CC(=O)N[C@@H](Cc1ccccc1)C(=O)N(CCCN)CC(=O)N[C@@H](Cc1ccccc1)C(=O)N(CCCN)CC(=O)N[C@@H](Cc1ccccc1)C(N)=O [Peptidomimetic 2] (H-[Gly(N(CH2)3NH2)]F[Gly(N(CH2)3NH2)]F[Gly(N(CH2)3NH2)]F[Gly(N(CH2)3NH2)]F[Gly(N(CH2)3NH2)]F[Gly(N(CH2)3NH2)]F-NH2) | >1280 | 62 | 5 | >64 | >64 | >64 | 64 (≈ 40.4 µM) | >64 | 8 to 16 | >64 | 35.7 | – | –
NCCNCC(=O)N[C@@H](Cc1ccccc1)C(=O)N(CCN)CC(=O)N[C@@H](Cc1ccccc1)C(=O)N(CCN)CC(=O)N[C@@H](Cc1ccccc1)C(=O)N(CCN)CC(=O)N[C@@H](Cc1ccccc1)C(=O)N(CCN)CC(=O)N[C@@H](Cc1ccccc1)C(=O)N(CCN)CC(=O)N[C@@H](Cc1ccccc1)C(N)=O [Peptidomimetic 1] (H-[Gly(N-2-aminoethyl)]F[Gly(N-2-aminoethyl)]F[Gly(N-2-aminoethyl)]F[Gly(N-2-aminoethyl)]F[Gly(N-2-aminoethyl)]F[Gly(N-2-aminoethyl)]F-NH2) | 1280 | 49 | 7 | >64 | >64 | 64 (≈ 42.6 µM) | 64 (≈ 42.6 µM) | >64 | 4 to 8 | >64 | 37.5 | – | –
H-(NLys-Nspe-Nspe)4-NH2 | – | – | – | – | – | – | – | – | – | – | – | 9.1 | 53.6
